Patent US7683061B2, “Triazine dimers for the treatment of autoimmune diseases” (ProMetic BioSciences Inc., priority 2003, dated 2010)

Experiments:
[1] = biological target: TNFα / p75 TNFα receptor (CD120b) (Homo sapiens, UniProt P01375); assay: Binding ELISA: sTNF-R2 binding to plastic coated TNF-α
Experimental: (§1) Compounds were tested for their ability to bind to TNFα or inhibit the interaction of TNFα with its respective receptors; p55 and p75 TNFα receptor. Three binding ELISA assays were undertaken as described by Mancini et al. Biochemical Pharmacology 58, 851-859 (1999). TNFα or receptor (1 μg/mL) was coated on a 96-well plate Maxisorp, overnight at 4° C. After incubation, unbound TNFα or p55 TNFα receptor or p75 TNFα receptor was removed and the plate washed three times with PBS. The plate was then incubated with 100 μL/well of a 2% BSA solution for 1 h at 37° C. to block non specific protein binding. After incubation, the plate was washed three times with PBS. Biotinylated recombinant human TNFα p55 or p75 receptor or biotinylated recombinant human TNFα was added to the wells in the presence or absence of compounds. The plate was incubated for 1 h at 37° C. After incubation, the plate was washed three times with PBS to remove unbound labeled p55 or p75 receptor or recombinant human TNFα. 100 μL of avidin-HRP (diluted 1/2000 in PBS-0.1% BSA) was added to each well and incubated 1 h at 37° C. Bound p55 or p75 receptor or recombinant human TNFα was detected by the addition of 200 μL of 3,3′,5,5′-tetramethylbenzidine (TMB) per well for 15 min. The plate was then read at 655 nm on a EL 800 universal Microplate reader (Bio-Tek, Mississauga, Canada). Data was analyzed in Microsoft Excel and recorded as the percentage of inhibition of p55 or p75 binding to TNFα or TNFα binding to RI (p55) or RII (p75).

[2] = test system: female Lewis rats, collagen-induced arthritis; assay: Collagen-induced arthritis (CIA); format: in vivo; settings: intravenous; from day 16 to day 21
Experimental: Collagen-induced arthritis (CIA) was induced in female Lewis rats by intradermal administration of heterologous (bovine) type II collagen (250 μg) solubilized in 0.1 M acetic acid and emulsified in Complete Freund's Adjuvant (CFA). Rats were treated with the vehicle or methotrexate or compound 1 by intravenous injections at day 8, 9, 12, 14 and 16. Synovitis typically develops 12-15 days postimmunization in 80-90% of the animals. Once arthritis appears, each paw was examined two to three times a week. Both the incidence and severity of the arthritis was evaluated. Incidence is defined as the number of rats with clinical evidence of joint inflammation during the study period while severity was quantified by scoring daily each paw integer on a scale of 0 to 4 (0=normal, 4=maximum; Table 7) based on increasing levels of swelling, periarticular erythema and stiffness. The sum of the scores for all four paws was calculated as the arthritic index with a maximum possible score of 16 per rat. Since CIA primarily affects hind limbs, scores of 6-8 represent severe arthritis.

[3] = biological target: TNFα / p55 TNFα receptor (CD120a) (Homo sapiens, UniProt P01375); assay: Binding ELISA: sTNF-R1 binding to plastic coated TNF-α
Chain of TNFα / p55 TNFα receptor (CD120a) (P01375 77-233 limits assumed): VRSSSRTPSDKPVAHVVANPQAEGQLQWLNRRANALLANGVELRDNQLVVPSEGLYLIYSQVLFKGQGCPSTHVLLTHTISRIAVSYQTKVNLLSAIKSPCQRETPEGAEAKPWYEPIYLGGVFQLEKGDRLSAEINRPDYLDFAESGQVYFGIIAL
Experimental: as §1

[4] = test system: RAW 264.7 cells; assay: Phagocytosis of FITC-immune complexes by RAW 264.7 cells; format: cell-based
Experimental: This assay was performed to determine the ability of protein A mimic compounds to stimulate or inhibit uptake of FITC-Immune Complex (IC). FITC-IC was prepared by mixing human serum albumin (HSA)-fluorescein isothiocyanate (FITC) with mouse IgG anti-HSA at a 1:4 ratio (four molecules of antibody for one molecule of antigen) on a rotary shaker for 1 h at room temperature. Soluble IC was then incubated with or without compounds or protein A for 10 min. This mixture was added to RAW 264.7 cells and incubated for 2 h at 37° C. for IC phagocytosis. After incubation, cells were washed twice in cold PBS (5 min, 1200 rpm) and fixed with 500 μL PBS containing 2% formaldehyde. FITC signal taken up by RAW 264.7, which is indicative of IC phagocytosis, was determined by flow cytometry analysis in a Becton Coulter counter with an argon laser and signal was measured through a 530/30 nm filter.

Chain of TNFα / p75 TNFα receptor (CD120b) (P01375 77-233 limits assumed): as above

Oc1ccc(CCNc2nc(NCCNc3nc(NCCc4ccc(O)cc4)nc(Nc4ccccc4)n3)nc(Nc3ccccc3)n2)cc1 [Compound 1] was tested, and the inhibition at 100 µM ([1]; 10^−4 M) was 0%, the inhibition at 10 µM ([1]; 10^−5 M) was 0% and the “reduction of the arthritic index” value [2] was 20%. For the same compound, the inhibition at 100 µM ([3]; 10^−4 M) was 2.7%, the inhibition at 10 µM ([3]; 10^−5 M) was 0% and the “inhibition of phagocytosis of IC” value ([4]; 10 and 20 μM) was “approximately 20%”. The “phagocytosis of IC” value ([4]; concentrations of 1, 2 and 4 μM) was “increase”.
